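Tested at 5 concentrations; 48 h exposure; 96-well plates; endpoints linearly interpolated, else capped at highest concentration. GI50: concentration for 50% inhibition of growth.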 Calls of active or inactive are those of the source. No stated cut-off is given here; in the data, active = GI50 up to about 1.1 µM and inactive = higher. Residues, ends and D or L forms follow the SMILES beside them. *: point of attachment. Pentanoyl = CCCCC(=O)*; Boc = CC(C)(C)OC(=O)*
Assays:
Assay in all cases: growth of human tumour cells (NCI), 48 h
[1] = system: OVCAR-5
[2] = system: Hs-578T
[3] = system: HT-29
[4] = system: HOP-62
[5] = system: SK-MEL-28
[6] = system: DU-145
[7] = system: Malme-3M
[8] = system: SN12C
[9] = system: K562
[10] = system: NCI-H522
[11] = system: TK-10
[12] = system: IGROV-1
[13] = system: SNB-19
[14] = system: EKVX
[15] = system: SF-539
[16] = system: HOP-92
[17] = system: COLO 205
[18] = system: M14
[19] = system: BT-549
[20] = system: A498

Row | SMILES | GI50 [1] | GI50 [2] | GI50 [3] | GI50 [4] | GI50 [5] | GI50 [6] | GI50 [7] | GI50 [8] | GI50 [9] | GI50 [10] | GI50 [11] | GI50 [12] | GI50 [13] | GI50 [14] | GI50 [15] | GI50 [16] | GI50 [17] | GI50 [18] | GI50 [19] | GI50 [20]
1 | COc1cccc2c1Cc1cc(-c3ccccc3)[n+](C)n1-2 | 23.9 µM (inactive) | 25.1 µM (inactive) | 3.54 µM (inactive) | 42.3 µM (inactive) | 46.1 µM (inactive) | 30.1 µM (inactive) | 10.3 µM (inactive) | 8.85 µM (inactive) | 3.26 µM (inactive) | 4.93 µM (inactive) | 28.8 µM (inactive) | 12.5 µM (inactive) | 28.9 µM (inactive) | 1.5 µM (inactive) | 5.4 µM (inactive) | 13.7 µM (inactive) | 1.38 µM (inactive) | 8.43 µM (inactive) | 22.5 µM (inactive) | 31.5 µM (inactive)
2 | O=C(O)c1ccccc1CC(Cc1ccccc1)C(=O)O (configuration not stated) | > 100 µM (inactive) | > 100 µM (inactive) | > 100 µM (inactive) | > 100 µM (inactive) | > 100 µM (inactive) | > 100 µM (inactive) | > 100 µM (inactive) | > 100 µM (inactive) | > 100 µM (inactive) | > 100 µM (inactive) | > 100 µM (inactive) | > 100 µM (inactive) | > 100 µM (inactive) | > 100 µM (inactive) | > 100 µM (inactive) | > 100 µM (inactive) | > 100 µM (inactive) | > 100 µM (inactive) | > 100 µM (inactive) | > 100 µM (inactive)
3 | C(=N\c1ccc(-c2nc3ccccc3[nH]2)cc1)/c1ccco1 | > 100 µM (inactive) | > 100 µM (inactive) | > 100 µM (inactive) | > 100 µM (inactive) | > 100 µM (inactive) | > 100 µM (inactive) | > 100 µM (inactive) | > 100 µM (inactive) | 37.6 µM (inactive) | 53.1 µM (inactive) | > 100 µM (inactive) | > 100 µM (inactive) |  | > 100 µM (inactive) | 77.8 µM (inactive) | 44.1 µM (inactive) | 43.9 µM (inactive) | > 100 µM (inactive) | > 100 µM (inactive) | > 100 µM (inactive)
4 | CC(=O)Nc1n[n+]([O-])c2cc(C)ccc2[n+]1[O-] | 12 µM (inactive) | 6.61 µM (inactive) | 2.52 µM (inactive) | 2.89 µM (inactive) | 17 µM (inactive) | 4.71 µM (inactive) | 3.18 µM (inactive) | 3.05 µM (inactive) | 1.94 µM (inactive) | 2.05 µM (inactive) | 22.8 µM (inactive) | 1.48 µM (inactive) | 4.98 µM (inactive) | 4.79 µM (inactive) | 1.99 µM (inactive) | 1.01 µM (active) | 2.37 µM (inactive) | 2.42 µM (inactive) | 3.39 µM (inactive) | 5.22 µM (inactive)
5 | CCN(CC)CCC(=O)c1ccc(C)cc1 | 17.3 µM (inactive) | 61.5 µM (inactive) | 20.8 µM (inactive) | > 100 µM (inactive) | 16.3 µM (inactive) | 39.6 µM (inactive) | 23 µM (inactive) | 36.9 µM (inactive) | 14.9 µM (inactive) | 13.8 µM (inactive) | > 10 µM (inactive) | 17.7 µM (inactive) | > 100 µM (inactive) | 31.3 µM (inactive) | 88.3 µM (inactive) | 18.2 µM (inactive) | 16.9 µM (inactive) | 19.1 µM (inactive) | 22.4 µM (inactive) | 16.4 µM (inactive)
6 | CCC(NC1=NCCO1)c1cccs1 (configuration not stated) | 17 µM (inactive) | 11.2 µM (inactive) | 19.7 µM (inactive) |  | 15.6 µM (inactive) | 13.7 µM (inactive) | 13 µM (inactive) |  | 5.55 µM (inactive) | 19.5 µM (inactive) | 15.8 µM (inactive) | 20.8 µM (inactive) | 16.3 µM (inactive) | 16.5 µM (inactive) | 15.5 µM (inactive) | 17.4 µM (inactive) | 17.3 µM (inactive) | 19 µM (inactive) | 20.1 µM (inactive) | 22.3 µM (inactive)
7 | NCCSC(c1ccccc1)c1ccccc1 | 17.2 µM (inactive) | 24.2 µM (inactive) | 17.7 µM (inactive) | 17.5 µM (inactive) | 18.6 µM (inactive) | 29.2 µM (inactive) | 19.5 µM (inactive) | 35.5 µM (inactive) |  | 19.1 µM (inactive) | 16.9 µM (inactive) | 13.1 µM (inactive) | 51.9 µM (inactive) | 30.7 µM (inactive) | 20.7 µM (inactive) | 10.6 µM (inactive) | 23.7 µM (inactive) | 14.7 µM (inactive) | 43.8 µM (inactive) | 22.4 µM (inactive)
8 | CCCCC(=O)Oc1ccc(CC(NC(=O)OC(C)(C)C)C(=O)NC(C)C(=O)NC(Cc2ccccc2)C(=O)NCC(N)=O)cc1 (configuration not stated) (Boc-Y(Pentanoyl)AFG-NH2; configuration not given here) | 21.9 µM (inactive) | 34.6 µM (inactive) | 19.4 µM (inactive) | 17.3 µM (inactive) | 27.3 µM (inactive) | > 100 µM (inactive) | 31.6 µM (inactive) | 32.3 µM (inactive) | 46.3 µM (inactive) | 18.8 µM (inactive) | > 100 µM (inactive) | 19.7 µM (inactive) | 23.3 µM (inactive) |  | 33.3 µM (inactive) | 16.2 µM (inactive) | 19.6 µM (inactive) | 36.7 µM (inactive) | 23.7 µM (inactive) | > 100 µM (inactive)
9 | N#C[BH2-][n+]1ccc(C(=O)NNCc2ccccc2)cc1 | > 100 µM (inactive) | > 100 µM (inactive) |  |  | > 100 µM (inactive) | > 100 µM (inactive) | > 100 µM (inactive) | > 100 µM (inactive) | > 100 µM (inactive) | > 100 µM (inactive) | > 100 µM (inactive) | > 100 µM (inactive) | > 100 µM (inactive) | > 100 µM (inactive) | > 100 µM (inactive) | > 100 µM (inactive) | > 100 µM (inactive) | > 100 µM (inactive) | > 100 µM (inactive) | > 100 µM (inactive)
10 | COc1cc2c(cc1C)NC(=O)/C2=C\c1cccnc1 | 17.6 µM (inactive) | 24.7 µM (inactive) | 15.5 µM (inactive) | 22.4 µM (inactive) | 50.4 µM (inactive) | 17.1 µM (inactive) | 15 µM (inactive) | 15.7 µM (inactive) | 9.4 µM (inactive) | 20.4 µM (inactive) | 14.9 µM (inactive) |  | 12.6 µM (inactive) | 19.8 µM (inactive) | 20.4 µM (inactive) | 25.1 µM (inactive) | 16.5 µM (inactive) | 12.9 µM (inactive) | 21.9 µM (inactive) | 10.3 µM (inactive)

Source: ChEMBL document CHEMBL1201862, “PubChem BioAssay data set” (2004)
